# Results reported in PMC11568214, “The impact of 9-azaglycophymine and phenylguanidine derivatives on the proliferation of various breast cancer cell lines in vitro and in vivo” (Scientific Reports, 2024).
# Experiments:
# 4T1 [1] = test: Crystal violet (CV) cell viability assay, IC50 determination; format: cell-based; conditions: Mus musculus, 72 h treatment, mean ± SD
# Experimental: (§1) For initial testing of the cytotoxic effect of the available glycophymine compounds (Table S2), cells were treated with compound in three concentrations: 1, 10 and 50 µM. Cells were seeded in 96-well plates and allowed to adhere overnight. Then they were treated for 72 h under standard culture conditions. […] For IC50 determination, the compounds were tested at seven concentrations (0.78, 1.56, 3.13, 6.25, 12.5, 25 and 50 µM). Subsequently, the cell viability was determined by using the crystal violet (CV) assay. Moreover, the selected compounds were tested against the mouse breast cancer cell line 4T1 (TNBC) as well. The compounds were prepared initially to obtain a stock solution of 20 mM in DMSO. Later, the working solutions were prepared by mixing the required amount of DMSO stock with the optimal medium for each cell line. The DMSO concentration in the final solution was always maintained lower than 0.5% to avoid any DMSO-derived side effects.
# (§2) For CV assays, after 72 h treatment, the treatment medium was discarded from the 96-well plates, and the cells were washed using 50 µL of PBS. Cells were fixed by adding 50 µL of 4% (v/v) paraformaldehyde (PFA) in PBS for 15 min at room temperature (RT). Afterwards, PFA was discarded, and the plates were dried for 15 min at RT. 50 µL of CV working solution (0.1% w/v CV in PBS) were added to the wells, followed by 15 min incubation at RT. Subsequently, the CV solution was discarded, and the plates were washed using aqua bidest. (ddH2O) to remove any remaining CV solution. The plates were left to dry overnight at RT, and then 50 µL of 33% (v/v) acetic acid in ddH2O were added to each well. Finally, the absorbance was measured at 570 nm by using a SpectraMax M5 plate reader (Molecular Devices, California, USA) and at 670 nm as background wavelength. […] Additionally, gefitinib, an approved EGFR inhibitor of the quinazoline family, was tested as anti-proliferative positive control. The data represent the mean ± standard deviation derived from three independent biological replicates. Dose–response curves were generated by four-parametric non-linear regression analysis using the GraphPad Prism software (version: 10.1, San Diego, CA, USA). Based on that, IC50 values and standard deviations were calculated for each replicate individually.
# BT-474 [2] = test: as above; format: cell-based; conditions: Homo sapiens, 72 h treatment, mean ± SD
# Experimental: as §1, §2
# HCC1937 [3] = test: as above; format: cell-based; conditions: Homo sapiens, 72 h treatment, mean ± SD
# Experimental: as §1, §2
# MCF-7 [4] = test: as above; format: cell-based; conditions: Homo sapiens, MCF7, 72 h treatment, mean ± SD
# Experimental: as §1, §2
# MDA-MB-468 [5] = test: as above; format: cell-based, human
# Experimental: as §1, §2
# BT-474 [6] = test: ROS production, DHR staining, flow cytometry; format: cell-based, human; design: key: ↑: induction; ↓: inhibition; ↔: no effect; conditions: BT-474, IC50 for 72 h
# Experimental: (§3) The cells were stained with CFSE (1 µM) in PBS containing 0.1% (v/v) FCS for 10 min. Afterwards, cells were washed with PBS, and then seeded with growth medium in 6-well plates. The plates were incubated for 24 h under standard culture conditions. […] Subsequently, the cells were detached using 0.5 mL of 0.05% (v/v) Trypsin–EDTA for 3 min at 37 °C. Then trypsin was deactivated by the addition of FCS-containing growth medium. The cell suspensions were collected, centrifuged for 3 min at 800 rpm, and the cell pellets were resuspended in fresh PBS. Finally, the samples were analyzed by using flow cytometry. For ROS production analyses, the procedure was performed exactly as described above for the cell division experiments, except that the CFSE staining solution was replaced by DHR staining solution resulting in 1 µM of DHR in PBS containing 0.1% (v/v) FCS[34],[35].
# HCC1937 [7] = test: ROS production, DHR staining, flow cytometry; format: cell-based, human; design: key: ↑: induction; ↓: inhibition; ↔: no effect; conditions: HCC1937, IC50 for 72 h
# Experimental: as §3
# MCF-7 [8] = test: ROS production, DHR staining, flow cytometry; format: cell-based, human; design: key: ↑: induction; ↓: inhibition; ↔: no effect; conditions: MCF-7, IC50 for 72 h
# Experimental: as §3
# MDA-MB-468 [9] = test: ROS production, DHR staining, flow cytometry; format: cell-based, human; design: key: ↑: induction; ↓: inhibition; ↔: no effect; conditions: MDA-MB-468, IC50 for 72 h
# Experimental: as §3
# 4T1 [10] = test: NO production, DAF-FM staining, flow cytometry; format: cell-based, mouse; design: key: ↑: induction; ↓: inhibition; ↔: no effect; conditions: 4T1, IC50 for 72 h
# Experimental: Afterwards, the medium was discarded and the cells were stained with DAF-FM (5 µM) in RPMI1640 with 10% (v/v) FCS for 1 h at 37 °C. The stain was completed by additional incubation for 15 min with serum-free medium. The cells were then detached, re-suspended in PBS and analyzed by flow cytometry.
# 4T1 [11] = test: Autophagy induction, acridine orange staining, flow cytometry; format: cell-based, mouse; design: key: ↑: induction; ↓: inhibition; ↔: no effect; conditions: 4T1, IC50 for 72 h
# Experimental: Cells were seeded in 6-well plates and incubated for 24 h under standard culture conditions. […] For the analyses of autophagy induction, the cell suspension was centrifuged for 3 min at 800 rpm, and the cell pellet was stained with 1 mL of AO working solution (1 µg/mL of AO in growth medium). Cells were incubated for 15 min under standard culture conditions. The cell suspension was centrifuged for 3 min at 800 rpm, and the cell pellet was washed with 1 mL of fresh PBS. Finally, all samples were analyzed by using flow cytometry (FACSAria III, BD Biosciences, New Jersey, USA).
# BT-474 [12] = test: Pan-caspase activation, ApoStat staining, flow cytometry; format: cell-based, human; design: key: ↑: induction; ↓: inhibition; ↔: no effect; conditions: BT-474, IC50 for 72 h
# Experimental: (§4) Cells were seeded in 6-well plates and incubated for 24 h under standard culture conditions. […] For the analyses of pan-caspase activation, the cell suspension was centrifuged for 3 min at 800 rpm, and the cell pellet was stained with 100 µL of ApoStat working solution (1 µL of ApoStat and 5% (v/v) FCS in 100 µL of PBS). Cells were incubated for 30 min under standard culture conditions. The cell suspension was centrifuged for 3 min at 800 rpm, and the cell pellet was washed with 1 mL of fresh PBS. Finally, all samples were analyzed by using flow cytometry (FACSAria III, BD Biosciences, New Jersey, USA).
# HCC1937 [13] = test: as above; format: cell-based, human; design: key: ↑: induction; ↓: inhibition; ↔: no effect; conditions: HCC1937, IC50 for 72 h
# Experimental: as §4
# MCF-7 [14] = test: as above; format: cell-based, human; design: key: ↑: induction; ↓: inhibition; ↔: no effect; conditions: MCF-7, IC50 for 72 h
# Experimental: as §4
# MDA-MB-468 [15] = test: as above; format: cell-based, human; design: key: ↑: induction; ↓: inhibition; ↔: no effect; conditions: MDA-MB-468, IC50 for 72 h
# Experimental: as §4
smiles,measurement,setting,value
"O=c1[nH]c(Nc2ccc([N+](=O)[O-])cc2)nc2ccccc12 [Compound 19, 4′-nitro-9-aza-glycophymine]",IC50,4T1 [1],12.5 ± 3.7 µM
same,IC50,BT-474 [2],4 ± 0.2 µM
same,IC50,HCC1937 [3],4.3 ± 0.1 µM
same,IC50,MCF-7 [4],5.5 ± 0.6 µM
same,toxicity against MDA-MB-468 in comparison to gefitinib,"MDA-MB-468 [5]; 72 h, Fig. S12",nearly three times higher toxicity
same,IC50,"MDA-MB-468 [5]; Homo sapiens, MDA-MB-468, 72 h treatment, mean ± SD",5.8 ± 0.3 µM
same,ROS,BT-474 [6],↓
same,ROS,HCC1937 [7],↓
same,ROS,MCF-7 [8],↔
same,ROS,MDA-MB-468 [9],↔
same,NO,4T1 [10],↑
same,Autophagy,4T1 [11],↔
same,Pan-caspases,BT-474 [12],↑
same,Pan-caspases,HCC1937 [13],↑
same,Pan-caspases,MCF-7 [14],↔
same,Pan-caspases,MDA-MB-468 [15],↔
